Measured values published in the NIST ThermoML archive (doi:10.1016/j.tca.2006.08.007).
± gives the expanded uncertainty stated by the source.

Assay: excess molar enthalpy (molar enthalpy of mixing); xn = mol fraction of the nth substance listed
Conditions: 101 kPa, Liquid, Isoperibol calorimetry

CCCCCO [pentan-1-ol] + CC#N
Conditions	excess molar enthalpy [kcal/mol]
288.15 K, x1 = 0.0461	0.107 ± 0.00143
288.15 K, x1 = 0.0922	0.1965 ± 0.00191
288.15 K, x1 = 0.1379	0.2691 ± 0.00239
288.15 K, x1 = 0.1833	0.3207 ± 0.00263
288.15 K, x1 = 0.2279	0.364 ± 0.00311
288.15 K, x1 = 0.2717	0.3903 ± 0.00335
288.15 K, x1 = 0.3144	0.4302 ± 0.00359
288.15 K, x1 = 0.356	0.446 ± 0.00382
288.15 K, x1 = 0.3963	0.4555 ± 0.00382
288.15 K, x1 = 0.4494	0.4615 ± 0.00382
288.15 K, x1 = 0.4818	0.4632 ± 0.00382
288.15 K, x1 = 0.5174	0.462 ± 0.00382
288.15 K, x1 = 0.5567	0.4548 ± 0.00382
288.15 K, x1 = 0.6002	0.4412 ± 0.00359
288.15 K, x1 = 0.6486	0.4187 ± 0.00335
288.15 K, x1 = 0.7027	0.3879 ± 0.00311
288.15 K, x1 = 0.7635	0.3396 ± 0.00287
288.15 K, x1 = 0.8322	0.2734 ± 0.00239
288.15 K, x1 = 0.9103	0.162 ± 0.00167
298.15 K, x1 = 0.0464	0.121 ± 0.00167
298.15 K, x1 = 0.0927	0.2151 ± 0.00215
298.15 K, x1 = 0.1386	0.2909 ± 0.00263
298.15 K, x1 = 0.1841	0.3511 ± 0.00287
298.15 K, x1 = 0.2289	0.3958 ± 0.00335
298.15 K, x1 = 0.2728	0.4293 ± 0.00359
298.15 K, x1 = 0.3157	0.4534 ± 0.00382
298.15 K, x1 = 0.3574	0.4699 ± 0.00382
298.15 K, x1 = 0.4188	0.4794 ± 0.00382
298.15 K, x1 = 0.4833	0.4821 ± 0.00382
298.15 K, x1 = 0.5189	0.4773 ± 0.00382
298.15 K, x1 = 0.5582	0.4663 ± 0.00382
298.15 K, x1 = 0.6016	0.45 ± 0.00359
298.15 K, x1 = 0.65	0.4302 ± 0.00359
298.15 K, x1 = 0.7039	0.3977 ± 0.00335
298.15 K, x1 = 0.7645	0.3468 ± 0.00287
298.15 K, x1 = 0.833	0.2758 ± 0.00239
298.15 K, x1 = 0.9108	0.1673 ± 0.00167
313.15 K, x1 = 0.0467	0.125 ± 0.00167
313.15 K, x1 = 0.0933	0.2268 ± 0.00215
313.15 K, x1 = 0.1395	0.3064 ± 0.00263
313.15 K, x1 = 0.1852	0.3662 ± 0.00311
313.15 K, x1 = 0.2302	0.4109 ± 0.00335
313.15 K, x1 = 0.2742	0.4455 ± 0.00359
313.15 K, x1 = 0.3172	0.4708 ± 0.00382
313.15 K, x1 = 0.359	0.4897 ± 0.00406
313.15 K, x1 = 0.4229	0.5093 ± 0.00406
313.15 K, x1 = 0.4526	0.5127 ± 0.00406
313.15 K, x1 = 0.485	0.5141 ± 0.00406
313.15 K, x1 = 0.5207	0.5076 ± 0.00406
313.15 K, x1 = 0.5599	0.4957 ± 0.00406
313.15 K, x1 = 0.6033	0.4783 ± 0.00382
313.15 K, x1 = 0.6516	0.4548 ± 0.00382
313.15 K, x1 = 0.7054	0.4202 ± 0.00335
313.15 K, x1 = 0.7658	0.3728 ± 0.00311
313.15 K, x1 = 0.834	0.2966 ± 0.00263
313.15 K, x1 = 0.9114	0.185 ± 0.00191
323.15 K, x1 = 0.0469	0.127 ± 0.00167
323.15 K, x1 = 0.0937	0.233 ± 0.00239
323.15 K, x1 = 0.1401	0.3143 ± 0.00263
323.15 K, x1 = 0.1859	0.3721 ± 0.00311
323.15 K, x1 = 0.231	0.4204 ± 0.00359
323.15 K, x1 = 0.2752	0.4579 ± 0.00382
323.15 K, x1 = 0.3183	0.483 ± 0.00382
323.15 K, x1 = 0.3601	0.5098 ± 0.00406
323.15 K, x1 = 0.4006	0.5244 ± 0.0043
323.15 K, x1 = 0.4538	0.5509 ± 0.00454
323.15 K, x1 = 0.4863	0.5562 ± 0.00454
323.15 K, x1 = 0.5219	0.5504 ± 0.00454
323.15 K, x1 = 0.5611	0.5361 ± 0.0043
323.15 K, x1 = 0.6045	0.5122 ± 0.00406
323.15 K, x1 = 0.6527	0.4897 ± 0.00406
323.15 K, x1 = 0.7064	0.4529 ± 0.00382
323.15 K, x1 = 0.7667	0.4101 ± 0.00335
323.15 K, x1 = 0.8346	0.3351 ± 0.00287
323.15 K, x1 = 0.9118	0.2165 ± 0.00215

CCCCCCO [hexan-1-ol] + CC#N
Conditions	excess molar enthalpy [kcal/mol]
288.15 K, x1 = 0.0402	0.105 ± 0.00143
288.15 K, x1 = 0.0809	0.188 ± 0.00191
288.15 K, x1 = 0.1219	0.2555 ± 0.00239
288.15 K, x1 = 0.1629	0.3074 ± 0.00263
288.15 K, x1 = 0.2038	0.3499 ± 0.00287
288.15 K, x1 = 0.2445	0.386 ± 0.00311
288.15 K, x1 = 0.2846	0.4183 ± 0.00335
288.15 K, x1 = 0.3241	0.4434 ± 0.00359
288.15 K, x1 = 0.3628	0.4663 ± 0.00382
288.15 K, x1 = 0.4145	0.4969 ± 0.00406
288.15 K, x1 = 0.4465	0.5029 ± 0.00406
288.15 K, x1 = 0.4819	0.5 ± 0.00406
288.15 K, x1 = 0.5214	0.4912 ± 0.00406
288.15 K, x1 = 0.5657	0.4775 ± 0.00382
288.15 K, x1 = 0.6156	0.4565 ± 0.00382
288.15 K, x1 = 0.6722	0.425 ± 0.00359
288.15 K, x1 = 0.7368	0.3812 ± 0.00335
288.15 K, x1 = 0.8114	0.3083 ± 0.00287
288.15 K, x1 = 0.898	0.191 ± 0.00215
298.15 K, x1 = 0.0405	0.121 ± 0.00167
298.15 K, x1 = 0.0815	0.2278 ± 0.00215
298.15 K, x1 = 0.1226	0.3093 ± 0.00263
298.15 K, x1 = 0.1639	0.3812 ± 0.00335
298.15 K, x1 = 0.205	0.4328 ± 0.00359
298.15 K, x1 = 0.2457	0.4742 ± 0.00382
298.15 K, x1 = 0.286	0.5062 ± 0.00406
298.15 K, x1 = 0.3257	0.5239 ± 0.0043
298.15 K, x1 = 0.3849	0.5428 ± 0.0043
298.15 K, x1 = 0.4227	0.554 ± 0.00454
298.15 K, x1 = 0.4554	0.5566 ± 0.00454
298.15 K, x1 = 0.4916	0.5557 ± 0.00454
298.15 K, x1 = 0.5321	0.5492 ± 0.00454
298.15 K, x1 = 0.5774	0.5359 ± 0.0043
298.15 K, x1 = 0.6286	0.5057 ± 0.00406
298.15 K, x1 = 0.6866	0.4701 ± 0.00382
298.15 K, x1 = 0.753	0.4089 ± 0.00335
298.15 K, x1 = 0.8295	0.309 ± 0.00263
298.15 K, x1 = 0.9187	0.165 ± 0.00167
298.15 K, x1 = 0.958	0.0932 ± 0.00143
313.15 K, x1 = 0.0408	0.132 ± 0.00191
313.15 K, x1 = 0.0819	0.238 ± 0.00239
313.15 K, x1 = 0.1233	0.3184 ± 0.00287
313.15 K, x1 = 0.1648	0.3815 ± 0.00335
313.15 K, x1 = 0.206	0.4398 ± 0.00359
313.15 K, x1 = 0.247	0.4861 ± 0.00406
313.15 K, x1 = 0.2874	0.5151 ± 0.0043
313.15 K, x1 = 0.3271	0.5387 ± 0.0043
313.15 K, x1 = 0.3888	0.5705 ± 0.00454
313.15 K, x1 = 0.4178	0.5782 ± 0.00478
313.15 K, x1 = 0.4498	0.5834 ± 0.00478
313.15 K, x1 = 0.4853	0.5841 ± 0.00478
313.15 K, x1 = 0.5248	0.5772 ± 0.00454
313.15 K, x1 = 0.569	0.5595 ± 0.00454
313.15 K, x1 = 0.6188	0.5311 ± 0.0043
313.15 K, x1 = 0.6752	0.4883 ± 0.00406
313.15 K, x1 = 0.7395	0.435 ± 0.00359
313.15 K, x1 = 0.8134	0.3535 ± 0.00311
313.15 K, x1 = 0.8993	0.2239 ± 0.00215
323.15 K, x1 = 0.041	0.136 ± 0.00191
323.15 K, x1 = 0.0823	0.2452 ± 0.00239
323.15 K, x1 = 0.1239	0.3296 ± 0.00287
323.15 K, x1 = 0.1655	0.4001 ± 0.00335
323.15 K, x1 = 0.2069	0.4541 ± 0.00382
323.15 K, x1 = 0.2479	0.505 ± 0.00406
323.15 K, x1 = 0.2884	0.5461 ± 0.00454
323.15 K, x1 = 0.3282	0.575 ± 0.00454
323.15 K, x1 = 0.39	0.626 ± 0.00502
323.15 K, x1 = 0.419	0.6384 ± 0.00502
323.15 K, x1 = 0.451	0.6417 ± 0.00526
323.15 K, x1 = 0.4865	0.6353 ± 0.00502
323.15 K, x1 = 0.526	0.6231 ± 0.00502
323.15 K, x1 = 0.5702	0.6001 ± 0.00478
323.15 K, x1 = 0.6199	0.5698 ± 0.00454
323.15 K, x1 = 0.6762	0.5206 ± 0.0043
323.15 K, x1 = 0.7404	0.4529 ± 0.00382
323.15 K, x1 = 0.8142	0.3561 ± 0.00311
323.15 K, x1 = 0.8997	0.223 ± 0.00215
